From patent US10765741B2, “Methods for treating VEGF-expressing cancer using preformed nanoparticle complexes comprising albumin-bound paclitaxel and bevacizumab” (Mayo Foundation for Medical Education and Research, priority 2011, dated 2020)

How the values were obtained:
[1] = Complex formation of labeled antibodies with labeled Abraxane nanoparticles, flow cytometry; format: binding; details: fluorescently labeled antibody and nanoparticles
Method: Three therapeutic monoclonal antibodies (bevacizumab, trastuzamab, and rituxan) were fluorescently labeled and incubated with fluorescently labeled Abraxane® nanoparticles. The particles were spun down, washed, and visualized by flow cytometry.

[2] = Bevacizumab incubated with free paclitaxel, Western blot with anti-paclitaxel antibody; format: binding; details: 4 mg bevacizumab, paclitaxel 0.1-2 mg, 30 minutes room temperature
Method: The following was performed to determine if bevacizumab binds free paclitaxel. 4 mg of bevacizumab was incubated with paclitaxel (0.1, 0.5, 1, or 2 mg) for 30 minutes at room temperature.

Substance	complex formation with Abraxane nanoparticles [1]	binding of free paclitaxel [2]
rituxan: Therapeutic monoclonal antibody	spontaneously formed complexes	–
bevacizumab: Humanized monoclonal antibody that binds to vascular endothelial growth factor A	spontaneously formed complexes	did not bind
